Counter-ions that a name gives are not always drawn.
Target: α7-subtype of nicotinic receptors (Rattus norvegicus, UniProt Q05941)
Test: biochemical
Assay type: binding

Chain of α7-subtype of nicotinic receptors (Q05941 23-502): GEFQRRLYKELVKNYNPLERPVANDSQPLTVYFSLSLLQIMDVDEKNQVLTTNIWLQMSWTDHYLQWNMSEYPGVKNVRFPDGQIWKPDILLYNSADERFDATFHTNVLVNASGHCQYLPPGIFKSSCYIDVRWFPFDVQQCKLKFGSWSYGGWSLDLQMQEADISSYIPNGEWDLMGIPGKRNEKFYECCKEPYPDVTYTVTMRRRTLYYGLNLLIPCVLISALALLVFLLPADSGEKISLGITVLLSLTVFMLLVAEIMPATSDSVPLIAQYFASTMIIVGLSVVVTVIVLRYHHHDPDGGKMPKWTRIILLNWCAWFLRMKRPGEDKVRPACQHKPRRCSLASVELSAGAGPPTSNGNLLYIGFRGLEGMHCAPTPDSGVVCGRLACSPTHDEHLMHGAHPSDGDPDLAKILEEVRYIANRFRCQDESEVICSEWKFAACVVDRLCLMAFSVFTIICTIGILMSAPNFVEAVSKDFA

c1ccc(Oc2cccc(-c3nnc(N4CCN5CCC4CC5)o3)c2)cc1 [Compound A2, 4-[5-(3-Phenoxy-phenyl)-[1,3,4]oxadiazol-2-yl]-1,4-diaza-bicyclo[3.2.2]nonane fumaric acid salt]
IC50: < 1000 nM

c1ccc(Oc2ccccc2-c2nnc(N3CCN4CCC3CC4)o2)cc1 [Compound A1, 4-[5-(2-Phenoxy-phenyl)-[1,3,4]oxadiazol-2-yl]-1,4-diaza-bicyclo[3.2.2]nonane fumaric acid salt]
IC50: < 100 nM

— patent US20100280015A1 (priority 2007, published 2010)
